Among the data in KR20080020768A, “항균 효과를 갖는 목단피의 추출물로부터 분리된 신규구조의 6‘-오-바닐릴옥시파에오니플로린 화합물을유효성분으로 함유하는 조성물” (priority 2006, dated 2008) are MIC values, retold here.

The subject of assay [1] is Salmonella paratyphi A JOL381. Briefly: Minimum inhibitory concentration (MIC) measurement. Format: cell-based. As to conditions: Salmonella enterica, 24 h, read-out: minimum inhibitory concentration (MIC).
In assay [2] the test system is E. coli O157 animal isolate [동물 분리주]. The experiment in a line: Minimum inhibitory concentration (MIC) measurement. Format: cell-based. As to conditions: Escherichia coli, 24 h, read-out: minimum inhibitory concentration (MIC).
For a further assay, the system named is MRSA ATCC 700698. Briefly: Minimum inhibitory concentration (MIC) measurement. Format: cell-based, methicillin-resistant S. aureus. As to conditions: Staphylococcus aureus, 24 h, read-out: minimum inhibitory concentration (MIC).
Assay [3] has as its system Shigella flexeneri JOL378. Briefly: Minimum inhibitory concentration (MIC) measurement. It counts as cell-based. The settings on record: JOL378, 24 h, read-out: minimum inhibitory concentration (MIC).
Another assay deals with E. coli O157 ATCC 43890. Briefly: Minimum inhibitory concentration (MIC) measurement. It counts as cell-based. As to conditions: Escherichia coli, ATCC43890, 24 h, read-out: minimum inhibitory concentration (MIC).
Assay [4] relates to MRSA 104 human isolate [사람 분리주]. The experiment in a line: Minimum inhibitory concentration (MIC) measurement. It counts as cell-based, methicillin-resistant S. aureus. The settings on record: Staphylococcus aureus, 24 h, read-out: minimum inhibitory concentration (MIC).
Assay [5] relates to E. coli K88 standard strain (E-126) [수과연표준균주 (E-126)]. Briefly: Minimum inhibitory concentration (MIC) measurement. Format: cell-based. As to conditions: Escherichia coli, 24 h, read-out: minimum inhibitory concentration (MIC).
Assay [6] relates to Vibrio cholerae O1 JOL375. The experiment in a line: Minimum inhibitory concentration (MIC) measurement. As to conditions: O1JOL375, 24 h, read-out: minimum inhibitory concentration (MIC). Format: cell-based.
The subject of assay [7] is Shigella dysenteriae ATCC 49557. The experiment in a line: Minimum inhibitory concentration (MIC) measurement. It counts as cell-based. As to conditions: ATCC49557, 24 h, read-out: minimum inhibitory concentration (MIC).
Assay [8] relates to Shigrlla dysenteriae JOL377. The experiment in a line: Minimum inhibitory concentration (MIC) measurement. Format: cell-based. The settings on record: 24 h, read-out: minimum inhibitory concentration (MIC).
Assay [9] relates to Vibrio cholerae O139 JOL376. Briefly: Minimum inhibitory concentration (MIC) measurement. As to conditions: O139JOL376, 24 h, read-out: minimum inhibitory concentration (MIC). It counts as cell-based.
Assay [10] has as its system MRSA 6 animal (chicken) isolate [동물(닭) 분리주]. Briefly: Minimum inhibitory concentration (MIC) measurement. It counts as cell-based, methicillin-resistant S. aureus. The settings on record: Staphylococcus aureus, 24 h, read-out: minimum inhibitory concentration (MIC).
Assay [11] relates to Salmonella typhimurium standard strain (Sal-13) [수과연표준균주 (Sal-13)]. The experiment in a line: Minimum inhibitory concentration (MIC) measurement. It counts as cell-based. The settings on record: Salmonella enterica, 24 h, read-out: minimum inhibitory concentration (MIC).
Another assay has as its system Salmonella typhi JOL380. The experiment in a line: Minimum inhibitory concentration (MIC) measurement. Format: cell-based. As to conditions: Salmonella enterica, 24 h, read-out: minimum inhibitory concentration (MIC).
In assay [12] the test system is Salmonella gallinarium standard strain [수과연표준균주]. Briefly: Minimum inhibitory concentration (MIC) measurement. It counts as cell-based. As to conditions: 24 h, read-out: minimum inhibitory concentration (MIC).
Another assay deals with E. coli O157 ATCC 35150. Briefly: Minimum inhibitory concentration (MIC) measurement. Format: cell-based. As to conditions: Escherichia coli, ATCC35150, 24 h, read-out: minimum inhibitory concentration (MIC).
The subject of assay [13] is all 18 causative bacteria of zoonotic infectious diseases [인수 공통 감염병을 유발하는 원인균 18종 모두]. Briefly: Minimum inhibitory concentration (MIC) measurement, all 18 strains. It counts as cell-based. As to conditions: 24 h; range over all 18 strains.
Assay [14] concerns Salmonella enteritidis standard strain (Sal-36) [수과연표준균주 (Sal-36)]. Briefly: Minimum inhibitory concentration (MIC) measurement. Format: cell-based. The settings on record: Salmonella enterica, 24 h, read-out: minimum inhibitory concentration (MIC).
Assay [15] relates to E. coli K99 standard strain (E-125) [수과연표준균주 (E-125)]. The experiment in a line: Minimum inhibitory concentration (MIC) measurement. It counts as cell-based. As to conditions: Escherichia coli, 24 h, read-out: minimum inhibitory concentration (MIC).

Converted amounts (≈) assume the structure as drawn.

On to `COc1cc(C(=O)OCC2OC(OC34CC5C6(O)CC3(C)OC(O6)C54COC(=O)c3ccc(O)cc3)C(O)C(O)C2O)ccc1O` (centres unmarked) [6′-오-바닐릴옥시파에오니플로린, 6'-O-vanillyloxypaeoniflorin], for which the MIC (in [1]; in assay [2]; in the assay with MRSA ATCC 700698; in assay [3]; with E. coli O157 ATCC 43890; in assay [4]) was 200 mg/L (≈ 309 µM) in each case. For the same compound, the MIC was 200 mg/L (≈ 309 µM) in assay [5]; 100 mg/L (≈ 155 µM) in assay [6]; 500 mg/L (≈ 773 µM) in assay [7]; 200 mg/L (≈ 309 µM) in [8]; 100 mg/L (≈ 155 µM) in assay [9]; 300 mg/L (≈ 464 µM) in assay [10]. Moreover, the MIC is 200 mg/L (≈ 309 µM) in [11]; 200 mg/L (≈ 309 µM) in the assay with Salmonella typhi JOL380; 200 mg/L (≈ 309 µM) in assay [12]; 300 mg/L (≈ 464 µM) in the assay with E. coli O157 ATCC 35150; 100 to 500 mg/L (≈ 155 to 773 µM) in assay [13]; 200 mg/L (≈ 309 µM) in assay [14].
For the compound `NCC1OC(OC2C(N)CC(N)C(OC3OC(CO)C(O)C(N)C3O)C2O)C(O)C(O)C1O` (centres unmarked) [Kanamycin A], the MIC in [1] is greater than 100 mg/L; in assay [2], greater than 100 mg/L; in the assay with MRSA ATCC 700698, greater than 100 mg/L; in [3] it was 10 mg/L (≈ 20.6 µM); in the assay on E. coli O157 ATCC 43890, 10 mg/L (≈ 20.6 µM); in assay [4], greater than 100 mg/L. In addition, the MIC is 50 mg/L (≈ 103 µM) in [5]; greater than 100 mg/L in assay [6]; greater than 100 mg/L in assay [7]; greater than 100 mg/L in assay [8]; 50 mg/L (≈ 103 µM) in [9]; 50 mg/L (≈ 103 µM) in assay [10]. In addition, the MIC in assay [11] was found to be 50 mg/L (≈ 103 µM); in the assay with Salmonella typhi JOL380, 50 mg/L (≈ 103 µM); in assay [12] it was 50 mg/L (≈ 103 µM); with E. coli O157 ATCC 35150 it was 10 mg/L (≈ 20.6 µM); in assay [14] it was 50 mg/L (≈ 103 µM).
Take `CC1(C)S[C@@H]2[C@H](NC(=O)Cc3ccccc3)C(=O)N2[C@H]1C(=O)O` [Penicillin G]: the MIC in assay [1] was greater than 100 mg/L; in assay [2] it was greater than 100 mg/L; in the assay with MRSA ATCC 700698 it was 100 mg/L (≈ 299 µM); in [3], greater than 100 mg/L; with E. coli O157 ATCC 43890, 50 mg/L (≈ 150 µM); in assay [4], greater than 100 mg/L. Further, the MIC is 100 mg/L (≈ 299 µM) in assay [5]; greater than 100 mg/L in assay [6]; greater than 100 mg/L in [7]; greater than 100 mg/L in [8]; 1 mg/L (≈ 2.99 µM) in assay [9]; greater than 100 mg/L in [10]. Also, the MIC was 10 mg/L (≈ 29.9 µM) in assay [11]; greater than 100 mg/L in the assay on Salmonella typhi JOL380; 10 mg/L (≈ 29.9 µM) in assay [12]; 50 mg/L (≈ 150 µM) in [15]; 50 mg/L (≈ 150 µM) in the assay with E. coli O157 ATCC 35150; 50 mg/L (≈ 150 µM) in [14].
